Reference: US7495008B2, “Spiro-piperidine derivatives” (Hoffmann-La Roche Inc., priority 2006, dated 2009)

Target: T1, human V1a receptor (Homo sapiens, UniProt P37288)
T1 construct: expressed in transfected cells; host or cells: HEK293 cells, transiently transfected; membranes prepared
Test: V1a receptor binding study (3H-Vasopressin SPA, HEK293 membranes)
Settings: membranes of HEK293 cells transiently transfected with human V1a receptor, Ki by Cheng-Prussoff equation, read-out: pKi hV1a (converted)
Method: The human V1a receptor was cloned by RT-PCR from total human liver RNA. The coding sequence was subcloned in an expression vector after sequencing to confirm the identity of the amplified sequence. […] Cell membranes were prepared from HEK293 cells transiently transfected with the expression vector and grown in 20 liter fermenters with the following protocol.
50 g of cells were resuspended in 30 ml freshly prepared ice cold Lysis buffer (50 mM HEPES, 1 mM EDTA, 10 mM MgCl2 adjusted to pH=7.4+complete cocktail of protease inhibitor (Roche Diagnostics)); homogenized with Polytron for 1 min; and sonicated on ice for 2×2 minutes at 80% intensity (Vibracell sonicator). The preparation was centrifuged 20 min at 500 g at 4° C., the pellet was discarded and the supernatant centrifuged 1 hour at 43,000 g at 4° C. (19,000 rpm). The pellet was resuspended in 12.5 ml Lysis buffer+12.5 ml Sucrose 20% and homogenized using a Polytron for 1-2 min. The protein concentration was determined by the Bradford method and aliquots were stored at −80° C. until use. For binding studies 60 mg Yttrium silicate SPA beads (Amersham) were mixed with an aliquot of membrane in binding buffer (50 mM Tris, 120 mM NaCl, 5 mM KCl, 2 mM CaCl2, 10 mM MgCl2) for 15 minutes with mixing. 50 ul of bead/membrane mixture was then added to each well of a 96 well plate, followed by 50 ul of 4 nM 3H-Vasopressin (American Radiolabeled Chemicals). For total binding measurement 100 ul of binding buffer were added to the respective wells, for non-specific binding 100 ul of 8.4 mM cold vasopressin and for compound testing 100 ul of a serial dilution of each compound in 2% DMSO. The plate was incubated 1 h at room temperature, centrifuged 1 min at 1000 g and counted on a Packard Top-Count. Non-specific binding counts were subtracted from each well and data was normalized to the maximum specific binding set at 100%. To calculate an IC 50 the curve was fitted using a non-linear regression model (XLfit), and the Ki was calculated using the Cheng-Prussoff equation.

T1 sequence (P37288 whole entry): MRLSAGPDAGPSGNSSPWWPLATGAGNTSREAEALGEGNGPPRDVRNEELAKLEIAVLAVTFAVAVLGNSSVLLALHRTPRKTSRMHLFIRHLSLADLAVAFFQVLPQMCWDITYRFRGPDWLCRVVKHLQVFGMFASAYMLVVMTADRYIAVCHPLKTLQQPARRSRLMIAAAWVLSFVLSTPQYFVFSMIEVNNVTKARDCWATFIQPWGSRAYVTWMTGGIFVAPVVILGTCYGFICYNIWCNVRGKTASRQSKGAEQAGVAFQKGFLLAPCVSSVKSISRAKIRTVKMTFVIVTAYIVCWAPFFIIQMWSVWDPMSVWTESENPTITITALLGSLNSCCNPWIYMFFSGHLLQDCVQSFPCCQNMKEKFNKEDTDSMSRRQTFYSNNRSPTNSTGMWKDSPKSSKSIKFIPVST

Ki [nM]	SMILES
63.1	CC1=C(C(=O)N2CC[C@@]3(OC(=O)c4ccccc43)[C@@H](C)C2)Cc2ccccc21 (racemic) [Example 10, (1RS,3′SR)-3′-Methyl-1′-[(3-methyl-1H-inden-2-yl)carbonyl]-3H-spiro[2-benzofuran-1,4′-piperidin]-3-one]
63.1	COc1ccc2c(c1)CC(C(=O)N1CCC3(CC1)OCc1ccccc13)S2 (stereo not shown) [Example 4, 1′-[(5-Methoxy-2,3-dihydro-1-benzothien-2-yl)carbonyl]-3H-spiro[2-benzofuran-1,4′-piperidine]]
50.1	CCc1cc(Br)cc2cc(C(=O)N3CCC4(CC3)OCc3ccccc34)oc12 [Example 6, 1′-[(5-Bromo-7-ethyl-1-benzofuran-2-yl)carbonyl]-3H-spiro[2-benzofuran-1,4′-piperidine]]
31.6	O=C(c1nc2cc(Cl)ccc2[nH]1)N1CCC2(CC1)OCc1ccccc12 [Example 9, 1′-[(5-Chloro-1H-benzimidazol-2-yl)carbonyl]-3H-spiro[2-benzofuran-1,4′-piperidine]]
50.1	COc1cccc2cc(C(=O)N3CCC4(CC3)OCc3ccccc34)sc12 [Example 2, 1′-[(7-Methoxy-1-benzothien-2-yl)carbonyl]-3H-spiro[2-benzofuran-1,4′-piperidine]]
200	COc1ccc2c(c1)C1(CCN(C(=O)c3cc4cccnc4[nH]3)CC1)OC2=O [Example 14, 6-Methoxy-1′-(1H-pyrrolo[2,3-b]pyridin-2-ylcarbonyl)-3H-spiro[2-benzofuran-1,4′-piperidin]-3-one]
25.1	O=C(c1cc2ccccc2s1)N1CCC2(CC1)OCc1ccccc12 [Example 1, 1′-(1-Benzothien-2-ylcarbonyl)-3H-spiro[2-benzofuran-1,4′-piperidine]]
